Measured values from US11000033B2, “Ketone or oxime compound, and herbicide” (NISSAN CHEMICAL CORPORATION, priority 2014, dated 2021).

Tests used:
Format in all cases: in vivo
[1] = tested on: Echinochloa crus-galli var. crus-galli; assay: Test Example 5: herbicidal effect by foliage application, plastic box (symbol H); conditions: 320 g/ha, 3 weeks after application
Outline: (§1)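 Seeds were sown in sterilized diluvial soil, covered with about 1.5 cm of soil and grown 14 days in a greenhouse at 25° C. to 30° C. An emulsifiable formulation diluted in water to a set rate was sprayed over foliage, and injury was scored 3 weeks later.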

Scirpus juncoides [2] = assay: Test Example 1: herbicidal activity, application before weed generation in submerged conditions (symbol B); conditions: application herbicide amount 320 g/ha
Outline: (§2)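 Scores run 0 to 5 by herbicidal ratio, with 5 meaning 90% or more and 0 meaning 5% or lower, read 3 weeks after treatment. Compound was applied as a diluted emulsion to the water surface of submerged alluvial-soil pots on the day weed seeds were sown.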

Alopecurus myosuroides = assay: Test Example 5: herbicidal effect by foliage application, plastic box (symbol J); conditions: 320 g/ha, 3 weeks after application
Outline: as §1

[3] = tested on: Echinochloa oryzacola Vasing.; assay: Test Example 2: herbicidal activity, application during weed generation in submerged conditions (symbol A); conditions: Table 23; application herbicide amount 320 g/ha; grade 0-5 by criteria of Test Example 1
Outline: (§3)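 Paddy pot test, submerged (4 cm water), alluvial soil, mixed sowing; greenhouse 25–30° C. Emulsion formulation diluted to predetermined rate, applied onto floodwater at 1–2 leaf stage. Visual herbicidal rating at 3 wk post-treatment.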

Apera spica-venti = assay: Test Example 4: herbicidal effect by soil treatment (symbol L); conditions: application herbicide amount 320 g/ha
Outline: (§4)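 Seeds were sown in sterilized diluvial soil, covered with about 1.5 cm of soil, and the soil surface was sprayed with a water-diluted emulsion of the compound at a predetermined rate. Plants grew in a greenhouse at 25° C. to 30° C.; effects were scored visually 3 weeks after application.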

Amaranthus retroflexus [4] = assay: Test Example 5: herbicidal effect by foliage application, plastic box (symbol N); conditions: 320 g/ha, 3 weeks after application
Outline: as §1

Setaria viridis = assay: Test Example 4: herbicidal effect by soil treatment (symbol G); conditions: application herbicide amount 320 g/ha
Outline: as §4

[5] = tested on: Echinochloa oryzacola Vasing.; assay: Test Example 1: herbicidal activity, application before weed generation in submerged conditions (symbol A); conditions: application herbicide amount 320 g/ha
Outline: as §2

wheat = assay: Test Example 4: effect on crop by soil treatment (symbol e); conditions: application herbicide amount 320 g/ha
Outline: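 Steps: fill box with sterilized diluvial soil; sow seed spot-like; cover with ~1.5 cm soil; grow in greenhouse (25° C. to 30° C.).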

transplanted rice plant = assay: Test Example 1: effect on crop, application before weed generation in submerged conditions (symbol a); conditions: application herbicide amount 320 g/ha
Outline: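 Alluvial soil pots flooded to 4 cm water, sown with Echinochloa oryzacola, Scirpus juncoides and Monochoria vaginalis, then transplanted with 2.5 leaf stage rice seedlings; pre-emergence application. Greenhouse 25° C. to 30° C.; scored 0–5 by herbicidal ratio 3 weeks after application.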

Amaranthus retroflexus [6] = assay: Test Example 4: herbicidal effect by soil treatment (symbol N); conditions: application herbicide amount 320 g/ha
Outline: as §4

Cyperus difformis = assay: Test Example 3: herbicidal effect by foliage application, Wagner pot (symbol E); conditions: application herbicide amount 320 g/ha, Table 24
Outline: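 Foliar spray of water-diluted emulsion formulation at a predetermined herbicide amount onto 14-day-old plants in flooded alluvial soil (water depth 0.1–0.5 cm), greenhouse 25–30 °C; rice sown alongside. Scored 3 wk post-application on set criteria.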

Scirpus juncoides [7] = assay: Test Example 2: herbicidal activity, application during weed generation in submerged conditions (symbol B); conditions: Table 23; application herbicide amount 320 g/ha; grade 0-5 by criteria of Test Example 1
Outline: as §3

SMILES	H: Echinochloa crus-galli var. crus-galli, herbicidal effect grade [1]	B (Scirpus juncoides) herbicidal effect grade (Scirpus juncoides [2])	J: Alopecurus myosuroides, herbicidal effect grade (Alopecurus myosuroides)	Herbicidal effect grade, A: Echinochloa oryzacola Vasing. [3]	Herbicidal effect grade, L: Apera spica-venti (Apera spica-venti)	N: Amaranthus retroflexus, herbicidal effect grade (Amaranthus retroflexus [4])	Herbicidal effect grade, G: Setaria viridis (Setaria viridis)	A (Echinochloa oryzacola Vasing.) herbicidal effect grade [5]	Effect on crop grade, e: wheat (wheat)	a (transplanted rice plant) effect on crop grade (transplanted rice plant)	Herbicidal effect grade, N: Amaranthus retroflexus (Amaranthus retroflexus [6])	E herbicidal effect grade (Cyperus difformis)	Herbicidal effect grade, B: Scirpus juncoides (Scirpus juncoides [7])
COCCON=C(CC1CC(O)=C(c2c(C)cc(-n3cc(Cl)cn3)cc2C)C1=O)C1CC1 (centres unmarked) [9-020]	5 (Herbicidal ratio of 90% or more (almost completely withered))	4 (Herbicidal ratio of 70% or higher and lower than 90%)	5 (Herbicidal ratio of 90% or more (almost completely withered))	4 (Herbicidal ratio of 70% or higher and lower than 90%)	4 (Herbicidal ratio of 70% or higher and lower than 90%)	5 (Herbicidal ratio of 90% or more (almost completely withered))	5 (Herbicidal ratio of 90% or more (almost completely withered))	5 (Herbicidal ratio of 90% or more (almost completely withered))	0 (Herbicidal ratio of 5% or lower (almost no effect))	5 (Herbicidal ratio of 90% or more (almost completely withered))	0 (Herbicidal ratio of 5% or lower (almost no effect))	5 (Herbicidal ratio of 90% or more (almost completely withered))	4 (Herbicidal ratio of 70% or higher and lower than 90%)
CC#Cc1cc(C)c(C2=C(O)CC(CC(=NOCCOC)C3CC3)C2=O)c(C)c1 (centres unmarked) [9-021]	5 (Herbicidal ratio of 90% or more (almost completely withered))	5 (Herbicidal ratio of 90% or more (almost completely withered))	5 (Herbicidal ratio of 90% or more (almost completely withered))	5 (Herbicidal ratio of 90% or more (almost completely withered))	5 (Herbicidal ratio of 90% or more (almost completely withered))	2 (Herbicidal ratio of 20% or higher and lower than 40%)	5 (Herbicidal ratio of 90% or more (almost completely withered))	5 (Herbicidal ratio of 90% or more (almost completely withered))	3 (Herbicidal ratio of 40% or higher and lower than 70%)	5 (Herbicidal ratio of 90% or more (almost completely withered))	0 (Herbicidal ratio of 5% or lower (almost no effect))	5 (Herbicidal ratio of 90% or more (almost completely withered))	5 (Herbicidal ratio of 90% or more (almost completely withered))
COCCON=C(CC1CC(O)=C(c2c(C)cc(-n3cc(Cl)cn3)cc2C)C1=O)C(C)C (centres unmarked) [9-022]	5 (Herbicidal ratio of 90% or more (almost completely withered))	3 (Herbicidal ratio of 40% or higher and lower than 70%)	2 (Herbicidal ratio of 20% or higher and lower than 40%)	4 (Herbicidal ratio of 70% or higher and lower than 90%)	0 (Herbicidal ratio of 5% or lower (almost no effect))	0 (Herbicidal ratio of 5% or lower (almost no effect))	5 (Herbicidal ratio of 90% or more (almost completely withered))	5 (Herbicidal ratio of 90% or more (almost completely withered))	0 (Herbicidal ratio of 5% or lower (almost no effect))	5 (Herbicidal ratio of 90% or more (almost completely withered))	0 (Herbicidal ratio of 5% or lower (almost no effect))	5 (Herbicidal ratio of 90% or more (almost completely withered))	0 (Herbicidal ratio of 5% or lower (almost no effect))
CC#Cc1cc(C)c(C2=C(O)CC(CC(=NOCCOC)C(C)C)C2=O)c(C)c1 (centres unmarked) [9-023]	5 (Herbicidal ratio of 90% or more (almost completely withered))	5 (Herbicidal ratio of 90% or more (almost completely withered))	5 (Herbicidal ratio of 90% or more (almost completely withered))	5 (Herbicidal ratio of 90% or more (almost completely withered))	5 (Herbicidal ratio of 90% or more (almost completely withered))	0 (Herbicidal ratio of 5% or lower (almost no effect))	5 (Herbicidal ratio of 90% or more (almost completely withered))	5 (Herbicidal ratio of 90% or more (almost completely withered))	3 (Herbicidal ratio of 40% or higher and lower than 70%)	5 (Herbicidal ratio of 90% or more (almost completely withered))	5 (Herbicidal ratio of 90% or more (almost completely withered))	5 (Herbicidal ratio of 90% or more (almost completely withered))	4 (Herbicidal ratio of 70% or higher and lower than 90%)
CC(CC1CC(O)=C(c2c(C)cc(-c3ccc(Cl)cc3)cc2C)C1=O)=NOCC(F)(F)F (centres unmarked) [9-024]	5 (Herbicidal ratio of 90% or more (almost completely withered))	4 (Herbicidal ratio of 70% or higher and lower than 90%)	5 (Herbicidal ratio of 90% or more (almost completely withered))	3 (Herbicidal ratio of 40% or higher and lower than 70%)	5 (Herbicidal ratio of 90% or more (almost completely withered))	1 (Herbicidal ratio of 5% or higher and lower than 20%)	5 (Herbicidal ratio of 90% or more (almost completely withered))	5 (Herbicidal ratio of 90% or more (almost completely withered))	2 (Herbicidal ratio of 20% or higher and lower than 40%)	5 (Herbicidal ratio of 90% or more (almost completely withered))	3 (Herbicidal ratio of 40% or higher and lower than 70%)	5 (Herbicidal ratio of 90% or more (almost completely withered))	3 (Herbicidal ratio of 40% or higher and lower than 70%)
